In patent publication US20130143825A1, “COMPOUNDS FOR USE IN THE TREATMENT OF DISEASES BASED ON THE EXPRESSION OF TOXIC TRANSCRIPTS” (UNIVERSITAT DE VALENCIA, priority 2010, published 2013):

Experiments:
2-AP-(CUG)23 RNA = experiment: 2-aminopurine fluorescence assay (hairpin opening); assay type: biochemical; conditions: peptide 100 μM, RNA 1 μM (1:100)
Method in brief: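 2-AP-labelled (CUG)23 RNA (1 μM) was incubated with peptides at 100 μM (RNA:peptide 1:100), or with MblZF at 0.1–5 μM. 2-aminopurine emission at 375 nm is expressed relative to free RNA, with higher fluorescence indicating a shift from hairpin to single-stranded.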

CUG60 RNA = experiment: Circular dichroism of CUG60 RNA; assay type: binding; conditions: RNA 1 μM, p10 0.1-20 μM, MblZF 1 and 1.5 μM, ppyawa 0.5 and 1 μM, payawe 1 μM
Protocol: However, this effect was not reverted when the RNA was incubated jointly with MblZF and p10, regardless of the order of addition (C).
In order to study possible changes in the secondary structure of RNA induced by p10, in the first place we performed a circular dichroism (CD) experiment, using an RNA with unlabelled CUG repeats (CUG60). The circular dichroism of nucleic acids is caused by the stacking of the bases that make up the sequence thereof. Consequently, when a molecule binds to RNA, affecting the structure thereof, a change is detected in its CD spectrum. […] When we incubated the RNA with increasing concentrations of the peptide of SEQ ID NO: 10 (0.1 μM, 0.5 μM, 1 μM, 10 μM and 20 μM), a similar effect was observed (FIG. 27B). During the readings, the RNA was kept in the cuvette inside the dichrograph at 10° C. Throughout the 3 hours of each experiment, it was possible for the RNA to have been degraded; this would explain the decrease in the intensity of the signal observed. In order to rule out this possibility, the CD spectrum of CUG60 RNA was measured at times 0 and 3 h, having kept the CUG60 RNA at 10° C. at all times.

[1] = system: AAG, CGG, CCUG and CAG repeats; experiment: Tryptophan extinction assay with repeats different from CUG; assay type: binding; conditions: RNA probe 5, 7.5, 10 μM (ppyawa: 10 μM)
Protocol: This figure illustrates an experiment which tested p10 and its capacity to bind to repeats different from CUG repeats, but which are also involved in diseases where the toxicity of RNAs with repeat expansions has been described. The tryptophan extinction assay was used, using (1) p10+AAG, CGG, CCUG and CAG at different RNA concentrations (5 μM, 7.5 μM and 10 μM).
On the other hand, as represented in FIG. 30, the peptides of the invention (particularly p10) have different binding affinities to hairpin loops formed by repeats other than CUG repeats, such as, for example AAG, CGG, CCUG and CAG. In this example, we tested p10 and its capacity to bind to repeats different from CUG repeats, but which are also involved in diseases where the toxicity of RNAs with long repeats has been described. […] Three assay points were used (3 different probe concentrations), with two measurements in each. The results were normalised to the signal offered by p10 alone. […] A single assay point is shown (probe at 10 μM). The results are shown non-normalised in order to be able to include the initial value of the peptides tested.

FAM-(CUG)23 RNA = experiment: Fluorescence gel retardation assay with FAM-(CUG)23; assay type: binding; conditions: peptide 2.5 mM, RNA 60 nM
Description: The changes on the RNA caused by p10 in the FP assay are small, probably due to the low molecular weight of the molecule (less than 900 Da). For this reason, it was decided to supplement the study with gel retardation experiments. These assays are based on the differences in electrophoretic mobility between stable protein-nucleic acid complexes and their components separately. Since the FAM-(CUG)23 RNA was available, it was decided to prepare a fluorescence gel retardation assay. After determining the optimal quantity of RNA for detection (60 nM; FIG. 21A), the binding between the latter and MblZF was studied. Said binding caused both a decrease in the intensity of the band corresponding to the free RNA in the gel and the appearance of a signal in the interior of the gel wells (bound RNA).
In order to determine whether p10 could bind to CUG RNA molecules, it was decided to perform a similar gel retardation experiment between the peptide and FAM-(CUG)23. p10 bound to the RNA, with part of the complex being retained in the well, as described for MblZF. […] This affinity decreased upon decreasing the size of the repeats (FAM-(CUG)4, FIG. 24C). […] This could be due either to a synergic effect between the protein and the peptide or to an additive effect if both should bind to different RNA sites.
In order to study the specificity of the binding observed between p10 and the CUG repeats, two experiments were performed. In the first place, the five hexapeptides generated during the alanine scanning were assayed. […] In the second place, we studied the effect of p10 on other RNA and DNA sequences, both double-stranded and single-stranded, fluorescently labelled with carboxyfluorescein (FAM) (FIG. 25C).

[2] = system: 103Y-Gal4/+;UAS-CTG(480)/+ flies; experiment: Lethality phenotype in pupae caused by expression of 480 CTG under 103Y-Gal4 (females born); assay type: in vivo, Drosophila; conditions: administered to larvae in the food; compared with p10
Protocol: The 120 vials that make up the chemical library were individually assayed on the lethality phenotype in pupae caused by the expression of 480 CTG under the control of 103Y-Gal4 at a concentration of 80 μM. […] Thus, for positions O1, O2, O3, O4, O5 and O6 of the hexapeptide, a total of six, three, six, four, two and seven active amino acids were obtained, respectively (FIG. 2A). In order to perform the deconvolution, 10 of these 28 amino acids were selected, on the basis of their degree of activity in the biological assay (FIG. 2A). Finally, of the possible combinations, 16 sequences were selected to perform the synthesis of the defined hexapeptides (FIG. 2B). The selection of these 16 peptides was based on redundancy criteria between the physical and chemical properties of active amino acids in similar positions.
At 250 μM, the activity of the peptide decreased, possibly due to a toxic effect of the peptide at higher concentrations.
In order to determine the contribution of each of the p10 residues to their activity on CTG(480), an alanine scanning experiment was performed. These experiments are based on substituting every amino acid of the peptide with alanine and keeping the rest. Alanine is a small amino acid and, in general, not very active; this is why it is used for this type of studies. Since each alanine substitution examines the contribution of an individual amino acid, this experiment makes it possible, on the one hand, to evaluate whether p10 is susceptible to optimisation (in the event that a substitution increases the efficacy of the molecule), or to determine which amino acids are important for its function (in the event that a substitution decreases the activity thereof). The sequence of p10 allows for 5 substitutions; for this reason, 5 new hexapeptides were synthesised which were assayed in relation to the lethality phenotype in 103Y-Gal4; UAS-CTG(480)/+ flies and commercial food.

ppyawa
increase in the fluorescence emission of 2-AP-(CUG)23 (2-AP-(CUG)23 RNA): None of these peptides caused changes | change of circular dichroism spectrum of CUG60 (CUG60 RNA): did not occur | change of circular dichroism spectrum of CUG60 (CUG60 RNA; listed as p29.1): did not change the RNA spectrum | change of tryptophan fluorescence intensity in the presence of repeats [1]: increase in intensity | significant binding to FAM-(CUG)23 RNA (FAM-(CUG)23 RNA): None | activity on lethality phenotype (number of females), alanine scanning [2]: loss of activity
